{"source": "patent EP0062704A1", "about": "“Cyclopropanecarboxylic-acid ester as an agent in the fight against larves of the Gasterophilidae family in Equidae” (HOECHST AKTIENGESELLSCHAFT, priority 1980, dated 1982)", "key": {"[1]": {"test_system": "Larven III der Magenbremse, Gasterophilus intestinalis", "assay": "In vitro test on larvae III of Gasterophilus intestinalis (5 min immersion, mortality count)", "details": "10 larvae immersed 5 min in 0,1 % active dilution, kept at about 37°C", "from_the_text": "Beispiel 2 : In vitro Test an Larven von Gasterophilus intestinalis\nDie Verbindungen (S)-a-Cyan-3-phenoxybenzyl(1R)-cis-3-(2,2-dibromvinyl)-2,2-dimethylcyclopropancarboxylat, nachfolgend bezeichnet als Verbindung A, (S)-a-Cyan-3-phenoxybenzyl (1R)-cis-3-(2,2-dichlorvinyl)-2,2-dimethylcyclopropancarboxylat, nachfolgend bezeichnet als Verbindung B, (S)-o-Cyan-3-phenoxybenzyl(1R)-cis-3-(2', 2'-dichlor-1',2'-dibromäthyl)-2,2-dimethylcyclopropancarboxylat, nachfolgend bezeichnet als Verbindung C, werden in Zubereitungen nach Beispiel 1 a) so in Wasser verdünnt, daß die Verdünnungen 0,1 % der Wirkstoffe enthalten. Zum Vergleich wird Dimethyl-2,2,2-trichloro-1-hydroxyäthyl-phosphonat (Trichlorfon) in derselben Verdünnung verwendet.\nLarven III der Magenbremse, Gasterophilus intestinalis, werden aus dem Magen eines geschlachteten Pferdes entnommen. Jeweils zehn Larven werden in Bechergläsern in die Verdünnungen für 5 Minuten eingetaucht. Zur Kontrolle werden 10 Larven in Wasser eingetaucht. Danach werden die Larven auf Filterpapier getrocknet und in Behälter aus Styropor verbracht, die unter einer Wärmelampe bei etwa 37°C aufbewahrt werden. Nach 1, 6, 24, 48, 72, 96 und 120 Stunden werden alle Larven untersucht und deren Mortalität protokolliert."}, "[2]": {"test_system": "Gasterophilus intestinalis", "assay": "In vivo test in horses infested with stomach bots: G. intestinalis", "details": "10 mg/kg by nasogastric tube; for %-Wirksamkeit: expelled and dead larvae as percent of all larvae present, horse; for noch im Magen festgeheftet: larvae at necropsy on day 7, horse; for Zahl der Larven im Kot Total: total of days 1-7, horse", "description": "(§1) Beispiel 3: In vivo-Prüfung an Pferden mit Magendasselbefall\n(§2) Zwei Pferde mit Körpergewichten von 190 kg und 142 kg werden mit den Verbindungen A bzw. C aus Beispiel II behandelt. Die Dosis beträgt 10 mg/kg Körpergewicht. Die sich aus der Dosis und der Konzentration der Arzneizubereitung nach Beispiel 2 zu errechnende Menge der Zubereitung wird im Volumenverhältnis 1 : 1 mit Wasser verdünnt und den Pferden mittels Nasenschlundsonde verabreicht.\n(§3) Nach der Behandlung werden die Pferde in Einzelboxen aufgestellt. […] Vorhandene Dassellarven werden gezählt und ihre Artzugehörigkeit bestimmt. Am siebten Tag nach der Behandlung werden die Pferde getötet und der Magen-Darmtrakt auf das Vorhandensein noch angehefteter und toter Dassellarven untersucht.\n(§4) Die Zahl der abgegangenen und toten Larven wird auf die Gesamtzahl vorhandener Larven prozentual bezogen und ihr Prozentsatz als \"% Wirksamkeit\" bezeichnet. Somit besagen 100 %, daß alle und 0 %, daß keine Larven abgetötet und abgetrieben werden."}, "Gasterophilus nasalis": {"test_system": "Gasterophilus nasalis", "assay": "In vivo test in horses infested with stomach bots: G. nasalis", "details": "10 mg/kg by nasogastric tube; for %-Wirksamkeit: expelled and dead larvae as percent of all larvae present, horse; for noch im Magen festgeheftet: larvae at necropsy on day 7, horse; for Zahl der Larven im Kot Total: total of days 1-7, horse", "description": "as §1, §2, §3, §4"}}, "note": "Marks after values point to notes of the source that are not given here."}
{"molecule": "CC1(C)[C@H](C(=O)O[C@H](C#N)c2cccc(Oc3ccccc3)c2)[C@@H]1C(Br)C(Cl)(Cl)Br", "note": "(stereo partly drawn) [Verbindung C, (S)-o-Cyan-3-phenoxybenzyl(1R)-cis-3-(2', 2'-dichlor-1',2'-dibromäthyl)-2,2-dimethylcyclopropancarboxylat]", "values": [{"measurement": "Zahl toter Larven Stunden nach Behandlung", "setting": "[1]; 1 h after treatment", "value": 4}, {"measurement": "Zahl toter Larven Stunden nach Behandlung", "setting": "[1]; 6 h after treatment", "value": 10}, {"measurement": "Zahl toter Larven Stunden nach Behandlung", "setting": "[1]; 24 h after treatment", "value": 10}, {"measurement": "Zahl toter Larven Stunden nach Behandlung", "setting": "[1]; 48 h after treatment", "value": 10}, {"measurement": "Zahl toter Larven Stunden nach Behandlung", "setting": "[1]; 72 h after treatment", "value": 10}, {"measurement": "Zahl toter Larven Stunden nach Behandlung", "setting": "[1]; 96 h after treatment", "value": 10}, {"measurement": "Zahl toter Larven Stunden nach Behandlung", "setting": "[1]; 120 h after treatment", "value": 10}, {"measurement": "Zahl der Larven im Kot an den Tagen nach der Behandlung", "setting": "[2]; day 1, horse", "value": 1}, {"measurement": "Zahl der Larven im Kot an den Tagen nach der Behandlung", "setting": "[2]; day 2, horse", "value": 2}, {"measurement": "Zahl der Larven im Kot an den Tagen nach der Behandlung", "setting": "[2]; day 3, horse", "value": 8}, {"measurement": "Zahl der Larven im Kot an den Tagen nach der Behandlung", "setting": "[2]; day 4, horse", "value": 10}, {"measurement": "Zahl der Larven im Kot an den Tagen nach der Behandlung", "setting": "[2]; day 5, horse", "value": 7}, {"measurement": "Zahl der Larven im Kot an den Tagen nach der Behandlung", "setting": "[2]; day 6, horse", "value": 2}, {"measurement": "Zahl der Larven im Kot an den Tagen nach der Behandlung", "setting": "[2]; day 7, horse", "value": 0}, {"measurement": "%-Wirksamkeit", "setting": "[2]", "value": 100, "unit": "%"}, {"measurement": "noch im Magen festgeheftet", "setting": "[2]", "value": 0}, {"measurement": "Zahl der Larven im Kot Total", "setting": "[2]", "value": 30}, {"measurement": "Zahl der Larven im Kot an den Tagen nach der Behandlung", "setting": "Gasterophilus nasalis; day 1, horse", "value": 0}, {"measurement": "Zahl der Larven im Kot an den Tagen nach der Behandlung", "setting": "Gasterophilus nasalis; day 2, horse", "value": 3}, {"measurement": "Zahl der Larven im Kot an den Tagen nach der Behandlung", "setting": "Gasterophilus nasalis; day 3, horse", "value": 7}, {"measurement": "Zahl der Larven im Kot an den Tagen nach der Behandlung", "setting": "Gasterophilus nasalis; day 4, horse", "value": 1}, {"measurement": "Zahl der Larven im Kot an den Tagen nach der Behandlung", "setting": "Gasterophilus nasalis; day 5, horse", "value": 0}, {"measurement": "Zahl der Larven im Kot an den Tagen nach der Behandlung", "setting": "Gasterophilus nasalis; day 6, horse", "value": 0}, {"measurement": "Zahl der Larven im Kot an den Tagen nach der Behandlung", "setting": "Gasterophilus nasalis; day 7, horse", "value": 0}, {"measurement": "%-Wirksamkeit", "setting": "Gasterophilus nasalis", "value": 100, "unit": "%"}, {"measurement": "noch im Magen festgeheftet", "setting": "Gasterophilus nasalis", "value": 0}, {"measurement": "Zahl der Larven im Kot Total", "setting": "Gasterophilus nasalis", "value": 11}]}
{"molecule": "CC1(C)[C@H](C(=O)O[C@H](C#N)c2cccc(Oc3ccccc3)c2)[C@@H]1C=C(Cl)Cl", "note": "[Verbindung B, (S)-a-Cyan-3-phenoxybenzyl (1R)-cis-3-(2,2-dichlorvinyl)-2,2-dimethylcyclopropancarboxylat]", "values": [{"measurement": "Zahl toter Larven Stunden nach Behandlung", "setting": "[1]; 1 h after treatment", "value": 10}, {"measurement": "Zahl toter Larven Stunden nach Behandlung", "setting": "[1]; 6 h after treatment", "value": 10}, {"measurement": "Zahl toter Larven Stunden nach Behandlung", "setting": "[1]; 24 h after treatment", "value": 10}, {"measurement": "Zahl toter Larven Stunden nach Behandlung", "setting": "[1]; 48 h after treatment", "value": 10}, {"measurement": "Zahl toter Larven Stunden nach Behandlung", "setting": "[1]; 72 h after treatment", "value": 10}, {"measurement": "Zahl toter Larven Stunden nach Behandlung", "setting": "[1]; 96 h after treatment", "value": 10}, {"measurement": "Zahl toter Larven Stunden nach Behandlung", "setting": "[1]; 120 h after treatment", "value": 10}]}
{"molecule": "COP(=O)(OC)C(O)C(Cl)(Cl)Cl", "note": "(centres unmarked) [Trichlorfon, Dimethyl-2,2,2-trichloro-1-hydroxyäthyl-phosphonat, reference compound]", "values": [{"measurement": "Zahl toter Larven Stunden nach Behandlung", "setting": "[1]; 1 h after treatment", "value": "6*"}, {"measurement": "Zahl toter Larven Stunden nach Behandlung", "setting": "[1]; 6 h after treatment", "value": "7*"}, {"measurement": "Zahl toter Larven Stunden nach Behandlung", "setting": "[1]; 24 h after treatment", "value": "4*"}, {"measurement": "Zahl toter Larven Stunden nach Behandlung", "setting": "[1]; 48 h after treatment", "value": "5*"}, {"measurement": "Zahl toter Larven Stunden nach Behandlung", "setting": "[1]; 72 h after treatment", "value": "9*"}, {"measurement": "Zahl toter Larven Stunden nach Behandlung", "setting": "[1]; 96 h after treatment", "value": "6*"}, {"measurement": "Zahl toter Larven Stunden nach Behandlung", "setting": "[1]; 120 h after treatment", "value": "6*"}]}
{"molecule": "CC1(C)[C@H](C(=O)O[C@H](C#N)c2cccc(Oc3ccccc3)c2)[C@@H]1C=C(Br)Br", "note": "[Verbindung A, (S)-a-Cyan-3-phenoxybenzyl(1R)-cis-3-(2,2-dibromvinyl)-2,2-dimethylcyclopropancarboxylat]", "values": [{"measurement": "Zahl toter Larven Stunden nach Behandlung", "setting": "[1]; 1 h after treatment", "value": 10}, {"measurement": "Zahl toter Larven Stunden nach Behandlung", "setting": "[1]; 6 h after treatment", "value": 10}, {"measurement": "Zahl toter Larven Stunden nach Behandlung", "setting": "[1]; 24 h after treatment", "value": 10}, {"measurement": "Zahl toter Larven Stunden nach Behandlung", "setting": "[1]; 48 h after treatment", "value": 10}, {"measurement": "Zahl toter Larven Stunden nach Behandlung", "setting": "[1]; 72 h after treatment", "value": 10}, {"measurement": "Zahl toter Larven Stunden nach Behandlung", "setting": "[1]; 96 h after treatment", "value": 10}, {"measurement": "Zahl toter Larven Stunden nach Behandlung", "setting": "[1]; 120 h after treatment", "value": 10}, {"measurement": "Zahl der Larven im Kot an den Tagen nach der Behandlung", "setting": "[2]; day 1, horse", "value": 2}, {"measurement": "Zahl der Larven im Kot an den Tagen nach der Behandlung", "setting": "[2]; day 2, horse", "value": 16}, {"measurement": "Zahl der Larven im Kot an den Tagen nach der Behandlung", "setting": "[2]; day 3, horse", "value": 18}, {"measurement": "Zahl der Larven im Kot an den Tagen nach der Behandlung", "setting": "[2]; day 4, horse", "value": 5}, {"measurement": "Zahl der Larven im Kot an den Tagen nach der Behandlung", "setting": "[2]; day 5, horse", "value": 0}, {"measurement": "Zahl der Larven im Kot an den Tagen nach der Behandlung", "setting": "[2]; day 6, horse", "value": 0}, {"measurement": "Zahl der Larven im Kot an den Tagen nach der Behandlung", "setting": "[2]; day 7, horse", "value": 0}, {"measurement": "%-Wirksamkeit", "setting": "[2]", "value": 93, "unit": "%"}, {"measurement": "noch im Magen festgeheftet", "setting": "[2]", "value": 3}, {"measurement": "Zahl der Larven im Kot Total", "setting": "[2]", "value": 41}, {"measurement": "Zahl der Larven im Kot an den Tagen nach der Behandlung", "setting": "Gasterophilus nasalis; day 1, horse", "value": 1}, {"measurement": "Zahl der Larven im Kot an den Tagen nach der Behandlung", "setting": "Gasterophilus nasalis; day 2, horse", "value": 4}, {"measurement": "Zahl der Larven im Kot an den Tagen nach der Behandlung", "setting": "Gasterophilus nasalis; day 3, horse", "value": 1}, {"measurement": "Zahl der Larven im Kot an den Tagen nach der Behandlung", "setting": "Gasterophilus nasalis; day 4, horse", "value": 0}, {"measurement": "Zahl der Larven im Kot an den Tagen nach der Behandlung", "setting": "Gasterophilus nasalis; day 5, horse", "value": 0}, {"measurement": "Zahl der Larven im Kot an den Tagen nach der Behandlung", "setting": "Gasterophilus nasalis; day 6, horse", "value": 0}, {"measurement": "Zahl der Larven im Kot an den Tagen nach der Behandlung", "setting": "Gasterophilus nasalis; day 7, horse", "value": 0}, {"measurement": "%-Wirksamkeit", "setting": "Gasterophilus nasalis", "value": 100, "unit": "%"}, {"measurement": "noch im Magen festgeheftet", "setting": "Gasterophilus nasalis", "value": 0}, {"measurement": "Zahl der Larven im Kot Total", "setting": "Gasterophilus nasalis", "value": 6}]}
